Reference: the supplement of paper PMC10307832

Columns and labels:
Assay in all cases: relative viability (nuclei count vs DMSO), 5 days (fraction); higher = more cells survive
[1] = compound: COc1cc2ncn(-c3cc(OCc4ccccc4C(F)(F)F)c(C(N)=O)s3)c2cc1OC + CC1(C)CCC(c2ccc(Cl)cc2)=C(CN2CCN(c3ccc(C(=O)NS(=O)(=O)c4ccc(N[C@H](CCN5CCOCC5)CSc5ccccc5)c(S(=O)(=O)C(F)(F)F)c4)cc3)CC2)C1 [Navitoclax] (partner 0.5 µM)
Summary of the method: (§1)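 For relative viability, nuclei counts in treated wells were divided by those in vehicle wells. Lung cancer cell lines had been pin-tool dosed in 1536-well plates the day after seeding and cultured for 5 days, then fixed and stained in one step (final 0.05% Triton X-100, 1% formaldehyde, 1 ug/ml Hoechst) and imaged at 4×. Doses were one drug alone or a fixed anchor-drug dose plus five library-drug doses (not always all listed) in √10 steps, and values are duplicate-plate medians.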

[2] = compound: COc1cc2ncn(-c3cc(OCc4ccccc4C(F)(F)F)c(C(N)=O)s3)c2cc1OC + C[C@@H](Oc1cc(-c2cnn(C3CCNCC3)c2)cnc1N)c1c(Cl)ccc(F)c1Cl [Crizotinib] (partner 1 µM)
Summary of the method: as §1

[3] = compound: COc1cc2ncn(-c3cc(OCc4ccccc4C(F)(F)F)c(C(N)=O)s3)c2cc1OC + Cc1nc(Nc2ncc(C(=O)Nc3c(C)cccc3Cl)s2)cc(N2CCN(CCO)CC2)n1 [Dasatinib] (partner 0.075 µM)
Summary of the method: as §1

[4] = compound: COc1cc2ncn(-c3cc(OCc4ccccc4C(F)(F)F)c(C(N)=O)s3)c2cc1OC + O=C(CCCCCCC(=O)Nc1ccccc1)NO [Vorinostat] (partner 1 µM)
Summary of the method: as §1

Row | Cell Line | relative viability ([1]; first compound 0.05 µM) | relative viability ([1]; first compound 0.1581 µM) | relative viability ([1]; first compound 0.5 µM) | relative viability ([1]; first compound 1.581 µM) | relative viability ([1]; first compound 5 µM) | relative viability ([2]; first compound 0.05 µM) | relative viability ([2]; first compound 0.1581 µM) | relative viability ([2]; first compound 0.5 µM) | relative viability ([2]; first compound 1.581 µM) | relative viability ([2]; first compound 5 µM) | relative viability ([3]; first compound 0.05 µM) | relative viability ([3]; first compound 0.1581 µM) | relative viability ([3]; first compound 0.5 µM) | relative viability ([3]; first compound 1.581 µM) | relative viability ([3]; first compound 5 µM) | relative viability ([4]; first compound 0.05 µM) | relative viability ([4]; first compound 0.1581 µM) | relative viability ([4]; first compound 0.5 µM) | relative viability ([4]; first compound 1.581 µM) | relative viability ([4]; first compound 5 µM)
1 | ChaGo-K-1 | 0.964 | 0.535 | 0.939 | 0.378 | 0.273 | 1.07 | 0.944 | 0.831 | 0.434 | 0.38 | 0.629 | 0.332 | 0.574 | 0.17 | 0.138 | 0.775 | 0.721 | 0.629 | 0.232 | 0.162
2 | NCI-H23 | 0.913 | 0.773 | 0.284 | 0.157 | 0.103 | 0.754 | 0.362 | 0.258 | 0.127 | 0.121 | 0.801 | 0.636 | 0.426 | 0.11 | 0.0948 | 0.519 | 0.284 | 0.0883 | 0.121 | 0.0755
3 | EMC-BAC-2 | 1.2 | 1.14 | 1.07 | 0.766 | 0.178 | 0.893 | 0.855 | 0.789 | 0.439 | 0.154 | 0.328 | 0.361 | 0.296 | 0.168 | 0.139 | 0.899 | 0.535 | 0.305 | 0.223 | 0.158
4 | LOU-NH91 | 0.715 | 0.816 | 0.592 | 0.445 | 0.399 | 0.772 | 0.779 | 0.626 | 0.483 | 0.459 | 0.6 | 0.599 | 0.459 | 0.31 | 0.387 | 0.903 | 1.04 | 0.683 | 0.365 | 0.29
5 | LU99A | 0.87 | 0.786 | 0.434 | 0.169 | 0.124 | 0.59 | 0.526 | 0.579 | 0.244 | 0.197 | 0.493 | 0.548 | 0.256 | 0.182 | 0.135 | 0.445 | 0.401 | 0.196 | 0.123 | 0.115
6 | NCI-H460 | 1.01 | 0.917 | 0.144 | 0.0132 | 0.0107 | 1.14 | 0.899 | 0.0648 | 0.0097 | 0.0254 | 0.593 | 0.636 | 0.283 | 0.0166 | 0.0348 | 0.745 | 0.723 | 0.0471 | 0.0166 | 0.0169
7 | 201T | 1.26 | 1.2 | 1.19 | 0.902 | 0.326 | 1.05 | 1.08 | 0.967 | 0.878 | 0.293 | 0.543 | 0.536 | 0.546 | 0.45 | 0.244 | 1.01 | 0.994 | 0.815 | 0.283 | 0.195
8 | NCI-H1944 | 1.04 | 1.06 | 0.785 | 0.189 | 0.123 | 1.32 | 1.18 | 1.1 | 0.351 | 0.113 | 0.227 | 0.223 | 0.191 | 0.127 | 0.109 | 0.609 | 0.602 | 0.456 | 0.166 | 0.127
9 | NCI-H2405 | 0.931 | 0.69 | 0.16 | 0.0992 | 0.0957 | 0.84 | 0.682 | 0.595 | 0.357 | 0.463 | 0.24 | 0.21 | 0.171 | 0.162 | 0.131 | 1.21 | 0.676 | 0.38 | 0.386 | 0.254
10 | NCI-H1755 | 1.04 | 0.957 | 0.653 | 0.222 | 0.183 | 0.829 | 0.828 | 0.644 | 0.389 | 0.334 | 0.445 | 0.402 | 0.315 | 0.222 | 0.207 | 0.781 | 0.738 | 0.631 | 0.447 | 0.354
11 | NCI-H2087 | 1.04 | 0.974 | 0.194 | 0.136 | 0.134 | 0.934 | 0.793 | 0.32 | 0.18 | 0.139 | 0.8 | 0.656 | 0.583 | 0.117 | 0.075 | 0.639 | 0.573 | 0.163 | 0.0594 | 0.121
12 | NCI-H2228 | 1.05 | 1.3 | 0.167 | 0.0999 | 0.105 | 0.542 | 0.554 | 0.31 | 0.207 | 0.308 | 0.381 | 0.472 | 0.176 | 0.132 | 0.181 | 0.283 | 0.575 | 0.196 | 0.111 | 0.104
13 | NCI-H838 | 1.2 | 1.23 | 0.733 | 0.15 | 0.135 | 1.02 | 0.932 | 0.492 | 0.124 | 0.111 | 0.302 | 0.291 | 0.224 | 0.255 | 0.156 | 0.577 | 0.801 | 0.477 | 0.13 | 0.132
14 | NCI-H520 | 1.04 | 1.18 | 0.454 | 0.201 | 0.162 | 0.984 | 0.513 | 0.19 | 0.148 | 0.16 | 0.239 | 0.202 | 0.157 | 0.191 | 0.193 | 0.343 | 0.621 | 0.215 | 0.179 | 0.183
15 | NCI-H727 | 0.457 | 0.618 | 0.464 | 0.166 | 0.185 | 0.707 | 0.901 | 0.58 | 0.247 | 0.266 | 0.383 | 0.349 | 0.362 | 0.225 | 0.329 | 1.28 | 1.14 | 0.673 | 0.579 | 0.591
16 | LK-2 | 0.867 | 0.732 | 0.266 | 0.117 | 0.133 | 0.247 | 0.247 | 0.245 | 0.209 | 0.204 | 0.282 | 0.369 | 0.262 | 0.154 | 0.151 | 0.241 | 0.159 | 0.125 | 0.124 | 0.12
